Measurements as given in patent US20080269114A1, “Y4 Selective Receptor Agonists For Thereapeutic Interventions” (priority 2004, published 2008).

Key:
[1] = molecular target: T1, human Y4 receptor (Homo sapiens, UniProt P50391); assay: Human Y4 receptor potency assay (inositol phosphate turnover, COS-7 cells); assay type: cell-based; conditions: relative to PP
T1 construct: expressed in transfected cells; host or cells: COS-7
Experimental: (§1) After stimulation with various concentrations of peptide for 45 min at 37 C, cells are extracted with 10% ice-cold perchloric acid followed by incubation on ice for 30 min. The resulting supernatants are neutralized with KOH in HEPES buffer, and the generated [3H]-inositol phosphate are purified on Bio-Rad AG 1-X8 anion-exchange resin and counted in a beta counter. Determinations are made in duplicates. EC50 values were calculated using a standard pharmacological data handling software, Prism 3.0 (graphPad Sofware, San Diego, USA).

[2] = molecular target: T2, human Y1 receptor (Homo sapiens, UniProt P25929); assay: Human Y1 receptor potency assay (inositol phosphate turnover, COS-7 cells); assay type: cell-based; conditions: relative to PP
T2 construct: expressed in transfected cells; host or cells: COS-7
T2 sequence (P25929 1-384): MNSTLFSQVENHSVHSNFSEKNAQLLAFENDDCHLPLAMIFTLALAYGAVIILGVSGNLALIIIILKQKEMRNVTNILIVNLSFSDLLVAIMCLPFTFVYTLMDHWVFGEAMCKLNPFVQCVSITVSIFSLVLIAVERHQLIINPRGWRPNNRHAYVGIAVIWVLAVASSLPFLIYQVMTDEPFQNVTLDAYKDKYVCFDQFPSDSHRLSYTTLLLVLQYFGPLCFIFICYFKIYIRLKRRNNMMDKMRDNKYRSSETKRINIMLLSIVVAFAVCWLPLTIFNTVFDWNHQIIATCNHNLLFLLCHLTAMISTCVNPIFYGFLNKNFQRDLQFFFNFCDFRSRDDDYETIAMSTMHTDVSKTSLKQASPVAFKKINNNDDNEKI
Experimental: Potency of the test compounds on the human Y2 receptor is determined by performing dose-response experiments in COS-7 cells transiently transfected with the human Y2 receptor as well as a promiscuous G protein, Gqi5 which ensures that the Y2 receptor couples through a Gq pathway leading to an increase in inositol phosphate turnover.
as §1, with “Cells are washed twice in buffer, 20 mM HEPES, pH 7.4, supplemented with 140 mM NaCl, 5 mM KCl, 1 mM MgSO4, 1 mM CaCl2, 10 mM glucose, 0.05% (w/v) bovine serum; and are incubated in 0.5 ml buffer supplemented with 10 mM LiCl at 37 C for 30 min. After” for “After”
Protocol as for the Y2 potency assay, except that human Y1-transformed COS-7 cells are used.

[3] = test system: food intake; assay: Effect of Y4 selective agonists on acute food intake in mice; assay type: in vivo, mice (ddy strain)
Experimental: . In FIG. 2 is shown the accumulated food intake of the mice during 8 hours. […] The 50% suppressive effect on food intake was observed also when this was measured during the first full hour.
Effect of Y4 Selective Agonists on Acute Food Intake in Mice
The ddy strain of mice were used, 34-37 g and 8-9 weeks of age (Japan SLC, Shizuuoka, Japan). The mice were individually house in a regulated environment (22 C, 55% humidity) in a 12-hour light-dark cycle with light on at 7 AM. Food and water were available ad libitum except just before experiments (see below). The mice were acclimatized to subcutaneous injections during the week before experiments started. Mice were used once each in the experiments. Just before administration the peptides were diluted in physiological saline and administered in 100 μL volume for subcutaneous administration. Results are expressed as mean±SE. Analysis of variance followed by Bonferroni's test were used to assess differences among groups.
Mice were deprived of food but with free access to water for 16 hours prior to the actual test and experiments were started at 10 AM on the following day. A standard diet was used (CLEA Japan, Inc., Tokyo, Japan) and food intake was measured by subtracting uneaten food from the initially premeausured food after administration and checking for food spillage.

T1 sequence (P50391 whole entry): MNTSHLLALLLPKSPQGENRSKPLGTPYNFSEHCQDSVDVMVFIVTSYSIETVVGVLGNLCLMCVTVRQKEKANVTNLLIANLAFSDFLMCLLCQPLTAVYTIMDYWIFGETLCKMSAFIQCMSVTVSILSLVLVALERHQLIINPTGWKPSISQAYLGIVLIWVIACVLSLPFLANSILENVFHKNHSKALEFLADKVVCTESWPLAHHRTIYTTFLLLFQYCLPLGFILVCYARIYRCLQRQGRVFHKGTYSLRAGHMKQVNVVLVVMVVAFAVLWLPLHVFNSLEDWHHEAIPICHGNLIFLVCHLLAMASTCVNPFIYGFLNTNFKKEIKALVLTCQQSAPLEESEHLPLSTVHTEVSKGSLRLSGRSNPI

## CC[C@H](C)[C@H](NC(=O)[C@H]1CSSC[C@H](NC(=O)[C@H](C)N)C(=O)N[C@@H](CC(C)C)C(=O)N[C@@H](CCC(=O)O)C(=O)N2CCC[C@H]2C(=O)N[C@@H](C(C)C)C(=O)N[C@@H](Cc2ccc(O)cc2)C(=O)N2CCC[C@H]2C(=O)NCC(=O)N[C@@H](CC(=O)O)C(=O)N[C@@H](CC(N)=O)C(=O)N[C@@H](C)C(=O)N[C@@H]([C@@H](C)O)C(=O)N2CCC[C@H]2C(=O)N[C@@H](CCC(=O)O)C(=O)N[C@@H](CCC(N)=O)C(=O)N[C@@H](CCSC)C(=O)N[C@@H](C)C(=O)N[C@@H](CCC(N)=O)C(=O)N[C@@H](Cc2ccc(O)cc2)C(=O)N[C@@H](C)C(=O)N[C@@H](C)C(=O)N[C@@H](CC(=O)O)C(=O)N[C@@H](CC(C)C)C(=O)N[C@@H](CCCNC(=N)N)C(=O)N[C@@H](CCCNC(=N)N)C(=O)N1)C(=O)N[C@@H](CC(N)=O)C(=O)N[C@@H](CCSC)C(=O)N[C@@H](CC(C)C)C(=O)N[C@H](C(=O)N[C@@H](CCCNC(=N)N)C(=O)N1CCC[C@H]1C(=O)N[C@@H](CCCNC(=N)N)C(=O)N[C@@H](Cc1ccc(O)cc1)C(N)=O)[C@@H](C)O [[Cys2,D-Cys27]PP]
[1]
  potency on the Y4 receptor lower than that of PP: 7 fold

## CC[C@H](C)[C@H](NC(=O)[C@H](Cc1ccc(O)cc1)NC(=O)[C@H](CCCNC(=N)N)NC(=O)[C@H](CCCNC(=N)N)NC(=O)[C@H](CC(C)C)NC(=O)[C@H](CC(=O)O)NC(=O)[C@H](C)NC(=O)[C@H](C)NC(=O)[C@H](Cc1ccc(O)cc1)NC(=O)[C@H](CCC(N)=O)NC(=O)[C@H](C)NC(=O)[C@H](CCSC)NC(=O)[C@H](CCC(N)=O)NC(=O)[C@H](CCC(=O)O)NC(=O)[C@@H]1CCCN1C(=O)[C@@H](NC(=O)[C@H](C)NC(=O)[C@H](CC(N)=O)NC(=O)[C@H](CC(=O)O)NC(=O)CNC(=O)[C@@H]1CCCN1C(=O)[C@H](Cc1ccc(O)cc1)NC(=O)[C@@H](NC(=O)[C@@H]1CCCN1C(=O)[C@H](CCC(=O)O)NC(=O)[C@H](CC(C)C)NC(=O)[C@@H]1CCCN1)C(C)C)[C@@H](C)O)C(=O)N[C@@H](CC(N)=O)C(=O)N[C@@H](CCSC)C(=O)N[C@@H](CC(C)C)C(=O)N[C@H](C(=O)N[C@@H](CCCNC(=N)N)C(=O)N1CCC[C@H]1C(=O)N[C@@H](CCCNC(=N)N)C(=O)N[C@@H](Cc1ccc(O)cc1)C(N)=O)[C@@H](C)O [PP2-36]
[2]
  potency on the Y1 receptor lower than that of PP: 3-4 fold
[3]; after the single subcutaneous injection
  period for which the suppressive effect on food intake was sustained: 8 h
[3]; first full hour, single subcutaneous injection, 16 hours fasted mice
  suppressive effect on food intake: 50%
